These are literature values, as cited in US20130316017A1, “Oral Composition for the Treatment of Acne” (priority 2012, published 2013).

The conditions of data set [1]: short-term (0-3 hours).
The test system of another data set is sebum. The following applies: in vivo.

The structures appear in SMILES notation.

Turning to `O=C(/C=C/C=C/c1ccc2c(c1)OCO2)N1CCCCC1` [Piperine], the “short-term availability of curcumin and any other compound in the composition” value in data set [1] was “improve”.

Consider `CC(C)(CO)[C@@H](O)C(=O)NCCC(=O)O` [vitamin B5], for which the reduction of sebum result in the data set with sebum is on record as “reduce sebum”.
